One assay addresses human TLR7 (Homo sapiens (Human), UniProt Q9NYK1). As to the kind of experiment: TLR7 inhibition reporter assay (HEK-Blue SEAP). It counts as cell-based. The note with it: HEK-Blue cells overexpressing human TLR7, gardiquimod 7.5 μM stimulation. On the technique in general: In a reporter assay the amount or activity of a reporter protein is the signal.
For another assay, the target named is human TLR8 (Homo sapiens (Human), UniProt Q9NR97). As to the kind of experiment: TLR8 inhibition reporter assay (HEK-Blue SEAP).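 Further: SEAP driven by IFN-β minimal promoter with five NF-κB and AP-1 sites, compounds tested 0.05 nM to 50 µM, 22 h incubation, inhibition relative to agonist plus DMSO wells.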 The note with it: read-out: TLR8 IC50; HEK-Blue cells overexpressing human TLR8, R848 15.9 μM stimulation, SEAP reporter.
Chain of human TLR8 (Q9NR97 27-1041): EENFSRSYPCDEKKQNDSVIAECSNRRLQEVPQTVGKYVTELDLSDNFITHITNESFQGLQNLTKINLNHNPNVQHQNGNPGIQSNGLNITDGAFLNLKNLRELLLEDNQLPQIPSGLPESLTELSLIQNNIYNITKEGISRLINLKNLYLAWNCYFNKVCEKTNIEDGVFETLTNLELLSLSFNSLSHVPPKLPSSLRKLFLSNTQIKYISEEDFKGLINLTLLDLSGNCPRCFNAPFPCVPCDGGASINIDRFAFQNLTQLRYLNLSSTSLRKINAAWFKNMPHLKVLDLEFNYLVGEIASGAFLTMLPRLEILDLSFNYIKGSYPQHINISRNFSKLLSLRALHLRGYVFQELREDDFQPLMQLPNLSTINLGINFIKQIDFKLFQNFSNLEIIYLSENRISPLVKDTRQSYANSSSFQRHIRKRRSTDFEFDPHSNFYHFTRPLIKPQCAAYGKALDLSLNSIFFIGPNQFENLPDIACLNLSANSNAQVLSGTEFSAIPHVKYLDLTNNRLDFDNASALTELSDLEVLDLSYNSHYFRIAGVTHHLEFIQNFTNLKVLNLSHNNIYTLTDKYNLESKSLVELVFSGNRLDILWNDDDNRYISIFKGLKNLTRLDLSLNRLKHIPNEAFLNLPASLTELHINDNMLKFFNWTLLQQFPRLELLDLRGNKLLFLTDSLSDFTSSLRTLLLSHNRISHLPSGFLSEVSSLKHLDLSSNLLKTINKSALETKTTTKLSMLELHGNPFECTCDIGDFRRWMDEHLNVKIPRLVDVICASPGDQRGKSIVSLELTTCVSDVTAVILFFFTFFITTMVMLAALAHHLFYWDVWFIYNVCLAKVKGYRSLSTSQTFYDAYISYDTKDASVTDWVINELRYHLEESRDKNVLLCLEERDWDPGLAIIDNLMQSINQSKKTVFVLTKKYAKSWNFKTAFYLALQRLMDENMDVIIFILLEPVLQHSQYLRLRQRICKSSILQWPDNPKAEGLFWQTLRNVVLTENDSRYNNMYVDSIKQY
A further assay deals with human TLR9 (Homo sapiens (Human), UniProt Q9NR96). Briefly: TLR9 inhibition reporter assay (HEK-Blue SEAP).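 Further: SEAP driven by IFN-β minimal promoter carrying five NF-κB and AP-1 sites, 22 h at 37 °C, compounds 0.05 nM–50 µM, inhibition scaled between agonist-plus-DMSO and reference-inhibitor wells.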 The note with it: read-out: TLR9 IC50; HEK-Blue cells overexpressing human TLR9, ODN2006 5 nM stimulation, SEAP reporter.
Chain of human TLR9 (Q9NR96 26-1032): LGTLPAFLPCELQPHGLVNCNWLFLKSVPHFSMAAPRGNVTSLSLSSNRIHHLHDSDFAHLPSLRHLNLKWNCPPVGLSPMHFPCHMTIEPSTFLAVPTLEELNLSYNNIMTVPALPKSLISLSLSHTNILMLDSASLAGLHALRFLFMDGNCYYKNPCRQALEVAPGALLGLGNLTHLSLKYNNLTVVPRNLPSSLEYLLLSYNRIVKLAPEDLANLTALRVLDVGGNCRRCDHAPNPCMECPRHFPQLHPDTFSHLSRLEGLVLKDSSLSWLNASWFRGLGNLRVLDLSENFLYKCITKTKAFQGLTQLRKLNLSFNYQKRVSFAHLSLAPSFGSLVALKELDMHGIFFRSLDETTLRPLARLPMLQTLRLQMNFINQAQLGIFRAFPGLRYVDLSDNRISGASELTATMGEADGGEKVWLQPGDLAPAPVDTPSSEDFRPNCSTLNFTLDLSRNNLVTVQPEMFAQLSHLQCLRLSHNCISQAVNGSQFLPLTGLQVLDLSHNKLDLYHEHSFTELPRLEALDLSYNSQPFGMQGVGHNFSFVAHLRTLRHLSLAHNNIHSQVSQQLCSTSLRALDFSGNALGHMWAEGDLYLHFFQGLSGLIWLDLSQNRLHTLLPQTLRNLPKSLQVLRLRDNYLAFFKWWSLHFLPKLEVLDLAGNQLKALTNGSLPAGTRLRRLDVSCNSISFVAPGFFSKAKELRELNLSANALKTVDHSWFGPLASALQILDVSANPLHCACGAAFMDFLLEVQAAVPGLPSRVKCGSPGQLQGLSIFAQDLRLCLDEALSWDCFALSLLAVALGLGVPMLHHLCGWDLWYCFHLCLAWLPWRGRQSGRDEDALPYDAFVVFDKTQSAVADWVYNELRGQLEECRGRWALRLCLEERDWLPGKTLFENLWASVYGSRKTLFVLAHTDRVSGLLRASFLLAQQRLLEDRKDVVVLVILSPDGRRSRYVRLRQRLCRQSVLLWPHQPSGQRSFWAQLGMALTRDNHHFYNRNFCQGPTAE

SMILES strings stand for the structures.

Chain of human TLR7 (Q9NYK1 27-1049): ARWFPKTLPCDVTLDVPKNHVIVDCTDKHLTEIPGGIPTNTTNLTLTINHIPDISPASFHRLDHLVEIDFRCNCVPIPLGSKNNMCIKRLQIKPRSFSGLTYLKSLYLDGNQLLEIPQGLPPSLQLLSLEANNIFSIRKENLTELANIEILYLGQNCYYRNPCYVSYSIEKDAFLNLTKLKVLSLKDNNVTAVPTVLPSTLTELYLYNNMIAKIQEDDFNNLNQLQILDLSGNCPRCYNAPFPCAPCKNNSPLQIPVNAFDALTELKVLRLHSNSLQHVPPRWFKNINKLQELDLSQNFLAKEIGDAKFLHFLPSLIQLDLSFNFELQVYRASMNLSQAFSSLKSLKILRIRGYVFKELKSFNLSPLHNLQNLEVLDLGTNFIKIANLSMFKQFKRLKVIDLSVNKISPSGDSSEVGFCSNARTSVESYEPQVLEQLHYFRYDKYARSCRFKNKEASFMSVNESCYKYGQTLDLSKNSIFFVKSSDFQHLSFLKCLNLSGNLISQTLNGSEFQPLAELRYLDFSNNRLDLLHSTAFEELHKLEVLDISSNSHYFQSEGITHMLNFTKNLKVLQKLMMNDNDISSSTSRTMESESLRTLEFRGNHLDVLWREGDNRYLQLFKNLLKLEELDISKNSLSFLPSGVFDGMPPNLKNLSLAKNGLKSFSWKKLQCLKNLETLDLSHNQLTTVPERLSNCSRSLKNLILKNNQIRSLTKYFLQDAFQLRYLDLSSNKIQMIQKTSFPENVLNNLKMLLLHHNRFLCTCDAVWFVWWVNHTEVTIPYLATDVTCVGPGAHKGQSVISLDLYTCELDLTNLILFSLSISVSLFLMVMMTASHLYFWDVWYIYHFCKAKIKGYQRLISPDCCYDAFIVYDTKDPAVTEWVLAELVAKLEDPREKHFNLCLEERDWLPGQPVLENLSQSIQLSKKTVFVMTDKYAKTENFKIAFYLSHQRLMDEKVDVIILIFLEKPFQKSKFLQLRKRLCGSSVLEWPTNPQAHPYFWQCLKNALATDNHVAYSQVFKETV

For the molecule `COc1cc(-c2[nH]c3cnc(C4CCC(NCC(C)(C)C)C4)cc3c2C(C)C)cn2ncnc12` (stereo not drawn) [Example 95], the half-inhibitory concentration (IC50) (commonly the concentration that inhibits the measured activity by half) against human TLR7 worked out at 41 nM; at human TLR8, 35 nM; at human TLR9, 1380 nM.

Take `COc1cc(-c2[nH]c3cnc(C4CCC(NCC(C)(C)OC)C4)cc3c2C(C)C)cn2ncnc12` (stereo not drawn) [Example 96]: the concentration for half-maximal inhibition (IC50) at human TLR7 is 24 nM; on human TLR8, 7.7 nM; on human TLR9, 294 nM.

Turning to `Cc1cc(-c2[nH]c3cnc(C4CCN(C(C)C)CC4)c(F)c3c2C(C)C)cc(C)n1` [Example 97], the half-inhibitory concentration (IC50) at human TLR7 came out at 2.5 nM; on human TLR8, 7.4 nM; at human TLR9, 1080 nM.

In the case of `CNCC(=O)N1CCN(c2ncc3[nH]c(-c4cc(OC)c5ncnn5c4)c(C(C)C)c3c2C)CC1` [Example 98], the values for the IC50 at human TLR7, at human TLR8 and on human TLR9 were 4.7 nM, 14 nM and 1200 nM, respectively.

For `COCCNC1CCN(c2ncc3[nH]c(-c4cc(OC)c5ncnn5c4)c(C(C)C)c3c2F)CC1` [Example 99], the figures for the half-inhibitory concentration (IC50) on human TLR7, on human TLR8 and on human TLR9 were 0.49 nM, 0.41 nM and 3980 nM, respectively.

On to `COc1cc(-c2[nH]c3cnc(N4CCC(NC5CCOCC5)CC4)c(F)c3c2C(C)C)cn2ncnc12` [Example 100], for which the IC50 on human TLR7 was 0.8 nM; on human TLR8 it was 0.25 nM; on human TLR9, 2340 nM.

In the case of `COc1cc(-c2[nH]c3cnc(N4CCC(N(C)C(C)C)CC4)c(F)c3c2C(C)C)cn2ncnc12` [Example 101], the concentration for half-maximal inhibition (IC50) was determined as 1.2 nM against human TLR7, 0.66 nM on human TLR8 and 4140 nM on human TLR9.

On to `CCN(C)C1CCN(c2ncc3[nH]c(-c4cc(OC)c5ncnn5c4)c(C(C)C)c3c2F)CC1` [Example 102], for which the IC50 on human TLR7 was found to be 0.34 nM; on human TLR8, 0.24 nM; at human TLR9, 2820 nM.

On to `COc1cc(-c2[nH]c3cnc(N4CCC(NC5CCOC5)CC4)c(F)c3c2C(C)C)cn2ncnc12` (stereo not drawn) [Example 103], for which the half-maximal inhibitory concentration (IC50) turned out to be 0.86 nM against human TLR7, 0.48 nM on human TLR8 and 5920 nM on human TLR9.

With `COc1cc(-c2[nH]c3cnc(N4CCC(N(C)C5COC5)CC4)c(F)c3c2C(C)C)cn2ncnc12` [Example 104], the half-inhibitory concentration (IC50) stood at 3.6 nM at human TLR7, 1.7 nM on human TLR8 and 5300 nM at human TLR9.

Regarding `COc1cc(-c2[nH]c3cnc(C4CCC(N(C)C5COC5)CC4)c(F)c3c2C(C)C)cn2ncnc12` (stereo not drawn) [Example 106], the results for the IC50 at human TLR7, on human TLR8 and on human TLR9 were 4.9 nM, 5 nM and 1950 nM, respectively.

As to `Cc1cc(-c2[nH]c3cnc(C4CCC(NC5COC5)CC4)c(F)c3c2C(C)C)cn2ncnc12` (stereo not drawn) [Example 107], the IC50 worked out at 3.6 nM against human TLR7, 4.5 nM on human TLR8 and 2060 nM at human TLR9.

For `Cc1cc(-c2[nH]c3cnc(C4CCC(N(C)C(C)C)CC4)c(F)c3c2C(C)C)cn2ncnc12` (stereo not drawn) [Example 108], the IC50 against human TLR7 worked out at 2.1 nM; on human TLR8 it was 4 nM; on human TLR9, 2760 nM.

Take `Cc1cc(-c2[nH]c3cnc(C4CCC(N5CCC5)CC4)c(F)c3c2C(C)C)cn2ncnc12` (stereo not drawn) [Example 109]: the IC50 on human TLR7 was 0.61 nM; at human TLR8 it was 1.7 nM; on human TLR9, 1660 nM.

For `Cc1cc(-c2[nH]c3cnc(C4CCC(NC5CCOCC5)CC4)c(F)c3c2C(C)C)cn2ncnc12` (stereo not drawn) [Example 110], the IC50 on human TLR7 was 2 nM; at human TLR8, 1.3 nM; on human TLR9, 1160 nM.

In the case of `Cc1c(-c2[nH]c3cnc(N4CCC(N5CC6(COC6)C5)CC4)c(F)c3c2C(C)C)cn2ncnc2c1C` [Example 111], the IC50 against human TLR7 was found to be 1 nM; on human TLR8 it was 0.48 nM; at human TLR9, 3000 nM.

For the molecule `Cc1c(N2CCC(NCC(C)(C)C)CC2)ncc2[nH]c(-c3cc(C)c4ncnn4c3)c(C(C)C)c12` [Example 112], the half-maximal inhibitory concentration (IC50) on human TLR7 turned out to be 1.6 nM; on human TLR8 it was 2.3 nM; on human TLR9, 1880 nM.

Consider `Cc1c(-c2[nH]c3cnc(N4CCC(NC(C)C)CC4)c(C)c3c2C(C)C)cn2ncnc2c1C` [Example 113], for which the values for the half-maximal inhibitory concentration (IC50) against human TLR7, on human TLR8 and at human TLR9 were 0.72 nM, 0.57 nM and 510 nM, respectively.

Regarding `COc1cc(-c2[nH]c3cnc(C4CCC(N(CC#N)C5COC5)CC4)c(F)c3c2C(C)C)cn2ncnc12` (stereo not drawn) [Example 114], the IC50 against human TLR7 turned out to be 4.8 nM; on human TLR8, 6.6 nM; on human TLR9, 17400 nM.

As to `COc1cc(-c2[nH]c3cnc(C4CCC(N(CC#N)C5COC5)CC4)c(F)c3c2C(C)C)cn2ncnc12` (stereo not drawn) [Example 115], the IC50 is 1.4 nM against human TLR7, 2.4 nM at human TLR8 and 15800 nM at human TLR9.

Consider `CCN(C)C1CCC(c2ncc3[nH]c(-c4cc(OC)c5ncnn5c4)c(C(C)C)c3c2C)CC1` (stereo not drawn) [Example 116], for which the values for the IC50 against human TLR7, on human TLR8 and on human TLR9 were 10 nM, 42 nM and 766 nM, respectively.

On to `COc1cc(-c2[nH]c3cnc(C4CCC(NC[C@@H](F)C(C)(C)O)CC4)c(C)c3c2C(C)C)cn2ncnc12` (stereo partly drawn) [Example 117], for which the half-inhibitory concentration (IC50) against human TLR7 was 28 nM; at human TLR8, 41 nM; on human TLR9, 868 nM.

Consider `COc1cc(-c2[nH]c3cnc(C4CCC(N5CC6(COC6)C5)C4)cc3c2C(C)C)cn2ncnc12` (stereo not drawn) [Example 118], for which the half-inhibitory concentration (IC50) against human TLR7 came out at 8.6 nM; on human TLR8, 1.4 nM; at human TLR9, 294 nM.

Turning to `Cc1c(-c2[nH]c3cnc(C4CCC(NC5CCOCC5)CC4)c(C)c3c2C(C)C)cn2ncnc2c1C` (stereo not drawn) [Example 119], the IC50 on human TLR7 came to 8.1 nM; on human TLR8, 11 nM; at human TLR9, 558 nM.

Consider `Cc1c(-c2[nH]c3cnc(C4CCC(NC5CCOCC5)CC4)c(C)c3c2C(C)C)cn2ncnc2c1C` (stereo not drawn) [Example 120], for which the IC50 stood at 2.3 nM against human TLR7, 2 nM at human TLR8 and 71 nM on human TLR9.

With `Cc1c(-c2[nH]c3cnc(C4CCC(NC5COC5)CC4)c(C)c3c2C(C)C)cn2ncnc2c1C` (stereo not drawn) [Example 121], the IC50 against human TLR7 stood at 2.7 nM; on human TLR8, 5.9 nM; at human TLR9, 759 nM.

As to `Cc1c(-c2[nH]c3cnc(C4CCC(NCC(C)(C)O)CC4)c(C)c3c2C(C)C)cn2ncnc2c1C` (stereo not drawn) [Example 122], the concentration for half-maximal inhibition (IC50) at human TLR7 amounted to 14 nM; at human TLR8, 10 nM; on human TLR9, 400 nM.

For `COc1cc(-c2[nH]c3cnc(C4CCC(NCC(C)(C)OC)C4)cc3c2C(C)C)cn2ncnc12` (stereo not drawn) [Example 123], the IC50 against human TLR7 came to 26 nM; at human TLR8, 31 nM; at human TLR9, 1110 nM.

As to `Cc1c(N2CCC(N(C)C(C)C)CC2)ncc2[nH]c(-c3cc(C)c4ncnn4c3)c(C(C)C)c12` [Example 124], the figures for the IC50 against human TLR7, on human TLR8 and at human TLR9 were 0.38 nM, 0.65 nM and 905 nM, respectively.

With `Cc1cc(-c2[nH]c3cnc(C4CCN(CC(N)=O)CC4)c(F)c3c2C(C)C)cn2ncnc12` [Example 125], the half-inhibitory concentration (IC50) on human TLR7 is 3.1 nM; on human TLR8, 6.5 nM; at human TLR9, 7030 nM.

Consider `COCCN1CCN(c2ncc3[nH]c(-c4cc(OC)c5ncnn5c4)c(C(C)C)c3c2C)CC1` [Example 126], for which the IC50 against human TLR7 came to 8.2 nM; on human TLR8, 3.2 nM; on human TLR9, 2530 nM.

Turning to `COc1cc(-c2[nH]c3cnc(C4CCN(CC(F)(F)F)CC4)c(F)c3c2C(C)C)cn2ncnc12` [Example 127], the values for the IC50 against human TLR7, on human TLR8 and on human TLR9 were 47 nM, 150 nM and greater than 50000 nM, respectively.

Turning to `Cc1cc(-c2[nH]c3cnc(C4CCN(CC(C)(C)O)CC4)c(F)c3c2C(C)C)cn2ncnc12` [Example 128], the concentration for half-maximal inhibition (IC50) on human TLR7 turned out to be 1.9 nM; on human TLR8 it was 1.4 nM; on human TLR9 it was 2480 nM.

In the case of `Cc1cc(-c2[nH]c3cnc(N4CCC(NCC5(C)COC5)CC4)c(F)c3c2C(C)C)cn2ncnc12` [Example 129], the IC50 against human TLR7 is 0.75 nM; on human TLR8, 0.15 nM; on human TLR9, 5900 nM.

For the molecule `Cc1cc(-c2[nH]c3cnc(N4CCC(N(C)C5COC5)CC4)c(F)c3c2C(C)C)cn2ncnc12` [Example 130], the values for the IC50 at human TLR7, on human TLR8 and at human TLR9 were 1.3 nM, 0.76 nM and 5250 nM, respectively.

For the molecule `CNC(=O)CN(C)C1CCC(c2ncc3[nH]c(-c4cc(OC)c5ncnn5c4)c(C(C)C)c3c2F)CC1` (stereo not drawn) [Example 131], the IC50 at human TLR7 was determined as 5 nM; at human TLR8 it was 7.9 nM; at human TLR9, 11400 nM.

With `Cc1cc(-c2[nH]c3cnc(C4CCC(N5CC6(COC6)C5)CC4)c(F)c3c2C(C)C)cn2ncnc12` (stereo not drawn) [Example 132], the IC50 at human TLR7 stood at 3.4 nM; at human TLR8 it was 5 nM; on human TLR9 it was 2130 nM.

In the case of `Cc1cc(-c2[nH]c3cnc(C4CCC(N5CC6(COC6)C5)CC4)c(F)c3c2C(C)C)cn2ncnc12` (stereo not drawn) [Example 133], the IC50 against human TLR7 was 0.52 nM; at human TLR8, 1.2 nM; on human TLR9, 1360 nM.

For `Cc1c(-c2[nH]c3cnc(C4CCC(NC5CCOCC5)CC4)c(F)c3c2C(C)C)cn2ncnc2c1C` (stereo not drawn) [Example 134], the IC50 amounted to 0.98 nM against human TLR7, 0.27 nM at human TLR8 and 1020 nM at human TLR9.

In the case of `CCN(C)C1CCC(c2ncc3[nH]c(-c4cn5ncnc5c(C)c4C)c(C(C)C)c3c2F)CC1` (stereo not drawn) [Example 135], the results for the IC50 against human TLR7, on human TLR8 and at human TLR9 were 0.24 nM, 0.48 nM and 6500 nM, respectively.

For `Cc1c(-c2[nH]c3cnc(C4CCC(NC(C)C)CC4)c(F)c3c2C(C)C)cn2ncnc2c1C` (stereo not drawn) [Example 136], the half-maximal inhibitory concentration (IC50) at human TLR7 came out at 0.41 nM; at human TLR8, 0.32 nM; on human TLR9, 620 nM.

Consider `COc1cc(-c2[nH]c3cnc(N4CCC(NC5COC5)CC4)c(C)c3c2C(C)C)cn2ncnc12` [Example 137], for which the half-maximal inhibitory concentration (IC50) at human TLR7 came out at 0.63 nM; at human TLR8, 0.9 nM; on human TLR9, 3160 nM.

`CCN(C)C1CCN(c2ncc3[nH]c(-c4cc(OC)c5ncnn5c4)c(C(C)C)c3c2C)CC1` [Example 138]: the IC50 was determined as 0.26 nM on human TLR7, 0.49 nM at human TLR8 and 1900 nM on human TLR9.
